Data reported in US20090023773A1, “COMPOSITIONS AND METHODS FOR MODULATING GATED ION CHANNELS” (PainCeptor Pharma Corporation, priority 2007, published 2009).

Assays:
[1] = molecular target: T1, hASIC2a/3 steady state (window) current (Homo sapiens, UniProt Q16515+Q9UHC3); test: ASIC2a/3 assay, automated two-electrode voltage clamp in oocytes microinjected with hASIC2a and hASIC3 (Example 2); type: cell-based; settings: 50 μM, perfusion at pH 6.5; FIG. 8
T1 construct: expressed in transfected cells; host or cells: Xenopus laevis oocytes, cRNA microinjection, 1:1 mass ratio
T1 sequence (Q16515 1-512): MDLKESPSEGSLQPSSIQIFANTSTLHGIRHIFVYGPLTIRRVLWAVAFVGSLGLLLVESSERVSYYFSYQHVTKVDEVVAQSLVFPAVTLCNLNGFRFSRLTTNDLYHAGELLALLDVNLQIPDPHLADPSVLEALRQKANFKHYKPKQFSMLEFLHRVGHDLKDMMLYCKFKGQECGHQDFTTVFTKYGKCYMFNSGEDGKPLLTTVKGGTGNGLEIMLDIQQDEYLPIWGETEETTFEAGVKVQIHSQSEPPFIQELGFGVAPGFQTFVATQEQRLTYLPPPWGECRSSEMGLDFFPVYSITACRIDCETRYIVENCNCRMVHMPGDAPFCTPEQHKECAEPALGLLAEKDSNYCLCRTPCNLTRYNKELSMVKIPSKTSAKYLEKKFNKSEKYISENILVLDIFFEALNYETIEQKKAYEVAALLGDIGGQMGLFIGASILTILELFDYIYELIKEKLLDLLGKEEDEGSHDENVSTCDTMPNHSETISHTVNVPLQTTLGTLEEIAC
T1 sequence (Q9UHC3 1-531): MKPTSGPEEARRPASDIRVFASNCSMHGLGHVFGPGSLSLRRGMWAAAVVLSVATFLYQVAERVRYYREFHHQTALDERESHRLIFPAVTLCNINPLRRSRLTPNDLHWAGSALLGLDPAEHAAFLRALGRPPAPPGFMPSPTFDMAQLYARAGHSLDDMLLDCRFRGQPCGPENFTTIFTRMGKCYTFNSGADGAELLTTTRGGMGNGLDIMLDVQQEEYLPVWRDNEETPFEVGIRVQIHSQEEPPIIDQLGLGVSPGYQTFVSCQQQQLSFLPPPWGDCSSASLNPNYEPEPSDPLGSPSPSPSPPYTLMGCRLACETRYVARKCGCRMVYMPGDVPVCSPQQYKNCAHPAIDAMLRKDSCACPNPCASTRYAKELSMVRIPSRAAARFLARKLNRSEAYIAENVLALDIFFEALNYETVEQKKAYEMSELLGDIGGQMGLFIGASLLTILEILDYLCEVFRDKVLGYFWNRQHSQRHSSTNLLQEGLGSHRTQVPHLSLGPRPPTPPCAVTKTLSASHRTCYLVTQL
Procedure: The ASIC2a/3 assay involves methods and procedures commonly in use and have been extensively described in the literature.
Briefly, a mature female frog is placed on its back after anesthesia, 20 min in 0.1% (w/v) Tricaine (Sigma), and incision is made on the lower abdomen through the skin, muscle and into the peritoneum. Lobes of ovaries are pulled out with forceps, cut and placed in a solution of Ca^2+-free Barth's with 1% (w/v) collagenase Type I (Sigma) added, for 90 minutes. The dissociated eggs are then washed with complete Barth's, supplementd with […] Gentamycin.
Plasmids containing cDNA for ASIC2a+ASIC3 are linearized and used for cRNA synthesis. The synthesis is done according to the protocol insert of the synthesis kit (e.g. Message Machine, Ambion). The final resuspension of the cRNA is made to provide a concentration of 1 μg/μL. The cDNA's for hASIC2a and hASIC3 are mixed with a 1:1 mass ratio and injected at […] per oocyte. Micro-injected oocytes start expressing hASIC2a3 specific current after 24 h.
The oocytes micro-injected with hASIC2a and hASIC3 cRNA's are placed in the recording chambers of the automated rig and then impaled with the voltage and current micro-electrodes. […] The voltage and current for each oocyte is recorded in one pass during both applications for later analysis. […]

[2] = tested on: chemically-induced spontaneous pain evoked by intraplantar injection of formalin; test: Formalin test, model of acute tonic pain (Example 7); type: in vivo; settings: rat; SC, 10 and 300 μmol/kg, 60 min prior to formalin; FIG. 9A
Procedure: Male Sprague-Dawley rats are housed together in groups of three animals under standard conditions with unrestricted access to food and water. All experiments are conducted according to the ethical guidelines for investigations of experimental pain in conscious animals (Zimmerman, 1983).
Assessment of formalin-induced flinching behavior in normal, uninjured rats (body weight 200-300 g) is made after formalin (2.5% in saline, 50-100 μl, s.c.) is injected into the plantar surface of the hindpaw using a 27 G needle. Rats are pretreated with test compounds either administered intravenously (IV), by subcutaneous injection (SC) or by orally (PO).
Nociceptive behavior is determined manually every 5 min by measuring the amount of time spent in each of four behavioral categories: 0, treatment of the injected hindpaw is indistinguishable from that of the contralateral paw; 1, the injected paw has little or no weight placed on it; 2, the injected paw is elevated and is not in contact with any surface; 3, the injected paw is licked, bitten, or shaken. A weighted nociceptive score, ranging from 0 to 3 is calculated by multiplying the time spent in each category by the category weight, summing these products, and dividing by the total time for each 5 min block of time. (Coderre et al., Pain 1993; 54: 43). On the basis of the resulting response patterns, […] of nociceptive behavior are identified and scored: first phase (P1; 0-5 min), interphase (Int; 6-15 min), second phase (P2; […]), phase 2A (P2A; 16-40 min) and phase 2B (P2B; 41-60 min).
Statistical analysis is performed using the Prism™ 4.01 software package (GraphPad, San Diego, Calif., USA). The difference in response levels between treatment groups and control vehicle group is analyzed using an ANOVA followed by Bonferroni's method for post-hoc pair-wise comparisons. A p value <0.05 is considered to be significant.

[3] = molecular target: T1, hASIC2a/3 steady state (window) current; settings: supramaximal concentration; Babinski et al. (2000); cited from earlier work

Compound | inhibition of the ASIC 2a/3 current [1] | pain intensity as evaluated by the licking behavior [2] | block of the ASIC2A/3 steady state current [3]
O=C(O)c1ccc(Nc2nc(-c3ccc(Cl)cc3)nc3ccccc23)cc1 [Compound 111] | specific inhibition | dose-dependent reduction | 
[Gd+3] [gadolinium (Gd^3+)] |  |  | completely block
